This assay concerns the target Pituitary adenylate cyclase-activating polypeptide type I receptor (Homo sapiens) (UniProt P41586). As to the kind of experiment: Antagonist activity at human PAC1 expressed in mouse […] 3T3 cells assessed as inhibition of glucagon-induced cAMP accumulation preincubated for 30 mins prior to glucagon challenge measured after 30 mins post glucagon challenge by liquid scintillation counter.

Chain of Pituitary adenylate cyclase-activating polypeptide type I receptor (Homo sapiens) (P41586 whole entry, looked up): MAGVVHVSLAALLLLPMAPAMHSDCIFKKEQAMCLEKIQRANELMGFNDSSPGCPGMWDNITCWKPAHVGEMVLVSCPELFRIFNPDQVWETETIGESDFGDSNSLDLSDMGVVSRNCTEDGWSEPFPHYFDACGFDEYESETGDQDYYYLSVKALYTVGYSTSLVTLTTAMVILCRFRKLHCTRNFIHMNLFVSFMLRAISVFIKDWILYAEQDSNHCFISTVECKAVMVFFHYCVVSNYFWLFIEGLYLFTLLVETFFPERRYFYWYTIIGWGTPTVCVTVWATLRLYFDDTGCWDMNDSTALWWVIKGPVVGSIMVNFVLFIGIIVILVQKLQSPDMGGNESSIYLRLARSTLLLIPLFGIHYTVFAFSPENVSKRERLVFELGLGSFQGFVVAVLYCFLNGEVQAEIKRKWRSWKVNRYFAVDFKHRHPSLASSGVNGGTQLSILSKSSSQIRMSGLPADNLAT

As for `COc1ccc2cc(-c3cc(-c4cc(Cl)cc(Cl)c4)nn3[C@@H](C)c3ccc(C(=O)NCCC(=O)O)cc3)ccc2c1`, the IC50 turned out to be 9.2 µM.

(Values after BindingDB's records for doi:10.1021/jm300579z (Merck Research Laboratories, 2012).)
